From patent US20180303141A1, “FLAVOR COMPOSITION FOR FOOD PRODUCTS” (NESTEC S.A., priority 2015, published 2018)

Legend:
[1] = system: panel of six experienced tasters; assay: Evaluation of the umami impression of the pea extract in different bouillon bases (scale 0-3); type: in vivo, human; conditions: bouillon base containing sub-threshold MSG (60 mg/L), no pea extract; average of six tasters, 0=no umami, 3=strong umami
Excerpt: It is clear from Example 3 that the umami impression cannot be explained solely by the MSG content. The MSG taste threshold is described in the literature as between 0.255 and 0.5 g MSG/L (1.5-3 mmol/L) (Behrens, M., et al. (2011) Sweet and Umami Taste: Natural Products, Their Chemosensory Targets, and Beyond; Angew. Chem. Int. Ed., 50, 2220-2242). Therefore the MSG content for the Pisum sativum extract is below the taste threshold. To confirm the umami taste of the pea extract, all MSG containing ingredients (MSG, ribonucleotides and yeast extract) were removed from a standard bouillon. Pea extract was added. […] The effect of the addition of a pea extract to a bouillon base (which has no intrinsic umami taste) is to provide a strong umami taste. It is clear that the pea extract alone promotes umami taste, and that this effect is even greater in the presence of MSG.
The pea extract used was obtained by a blanching water process containing the composition as described in table 1.
The results given are the average rating of a panel of six experienced tasters rating the umami intensity (0=no umami; 1=umami barely perceivable; 2=umami clearly perceivable; 3=strong umami).

[2] = system: panel of 12 experienced tasters; assay: Comparison of the umami impression of a standard bouillon containing MSG and a bouillon with pea extract but no MSG (scale 0-10); type: in vivo, human; conditions: standard bouillon containing MSG; average of 12 tasters, 0=no umami, 10=strong umami
Excerpt: A standard bouillon containing no MSG but added pea extract was compared to the same standard bouillon containing MSG. A trained panel rated the bouillons on a scale from 0 (no umami) to 10 (strong umami). This gives evidence that the pea extract delivers a strong umami even it is less than to MSG itself, but the taste is received as being more natural and round mouthfeel instead of using MSG alone. […] The pea extract used was obtained by a blanching water process containing the composition as described in table 1. The results given are the average rating of a panel of 12 experienced tasters rating the umami intensity (0=no umami; 10=strong umami).

umami taste = assay: Fractionation of aqueous pea extract and analysis of the fractions with strong umami taste; conditions: compound identified in pea extract
Description: The applicant prepared an aqueous extract of pea, preferably green pea and then subjected that extract to fractionation.
The compounds were isolated and characterized using two-dimensional preparative chromatography. For example, size exclusion chromatography in the first dimension, then hydrophilic interaction column (normal phase) in a second dimension. Identification of compounds was carried out using conventional analytical methods such as LC-MS or NMR.

[3] = system: sensory panel of 6 trained persons; assay: Sensory evaluation of pea extract dissolved in water, umami intensity on a 3-point scale versus a control sample; type: in vivo, human; conditions: calculated for the example with pea extract containing 0.5% beta-R in water
Description: Different pea extract from Pisum sativum containing the composition as described in table 1 has been used to define the threshold concentrates in a sensory panel of 6 trained persons. The technical tasting was measured versus a control sample. Tasters were asked to judge the different products according to umami intensity on a 3-point scale.

| Molecule | Umami Rating [1] | Umami Rating [2] | Contribution to umami taste (in words) (umami taste) | threshold concentrate [3] |
| --- | --- | --- | --- | --- |
| N[C@@H](CCC(=O)O)C(=O)[O-].[Na+] [MSG, Monosodium glutamate] | 0 | 5 | – | – |
| (5R)-(β-D-glucopyranosyloxy)-1,5-dihydro-2H-pyrrol-2-one [beta-R] | – | – | responsible to provide and enhance an umami taste | 147 ppm |
